Laboratory results as given in US12357603B2, “Acyl sulfonamides for treating cancer” (Bayer Aktiengesellschaft, priority 2019, dated 2025).

Assays:
[1] = system: MDA-MB-436 cells; assay: Proliferation assay MDA-MB-436, negative control cell line (Alamar Blue, 144 h); assay type: cell-based; settings: Homo sapiens, MDA-MB-436, 144 h, arithmetic mean
Outline: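 Viability read as Alamar Blue fluorescence (590 nm, 2 h) after 144 h compound exposure at 37 °C, 5% CO2. Cells seeded at 3000 per well in 2.5% FBS DMEM/Ham's F12, dosed a day later over 2.0×10E-9–2.0×10E-5 M in 9 steps with 0.2% DMSO, in triplicate.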

[2] = system: ZR-75-1 cells; assay: Proliferation assay ZR-75-1 (Alamar Blue, 144 h); assay type: cell-based; settings: Homo sapiens, ZR-75-1, 144 h, arithmetic mean, read-out: ZR75-1 proliferation assay, EC50 [M] (arithmetic mean)
Outline: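 Alamar Blue fluorescence (590 nm, 2 h reagent step) measured viability after 144 h compound exposure at 37 °C, 5% CO2. Compounds spanned 2.0×10E-5 to 2.0×10E-9 M in 9 dilutions at 0.2% DMSO, in triplicate, added 24 h after plating 3000 cells/well in RPMI 1640 plus 2.5% FBS.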

[3] = target: Recombinant human His-tagged Kat6a protein (amino acids 194-810) (Homo sapiens (Human), UniProt Q92794); assay: Kat6a activity assay (TR-FRET, acetylation of biotinylated Histone-H4-derived peptide); assay type: biochemical; settings: 60 mins at 22° C., read-out: KAT6A-DPF/HAT domain IC50 [mol/l] (arithmetic mean)
Outline: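 TR-FRET read-out of H4 K8 acetylation, using anti-acetyl-K8 antibody and streptavidin acceptor, after anacardic acid stop; IC50 from four-parameter regression normalized to DMSO. Reaction: recombinant human Kat6a aa 194-810 (insect-cell derived), 220 nM H4 1-24 peptide, 600 nM acetyl-CoA, pH 8, 22 °C, 60 min, compounds 0.01-20 μM.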

[4] = system: ESR1 transcription (luciferase signal in MVLN cells); assay: Repression of ESR1 transcription, luciferase reporter in MVLN cells; assay type: cell-based; settings: Homo sapiens, MVLN, inhibition of luciferase signal in MVLN cells; arithmetic mean
Outline: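 Luminescence from an ER-driven Vitellogenin A2 element–luciferase reporter was measured after 24 h of treatment of MVLN cells, in duplicate wells. Alamar Blue (2 h, 530/590 nm) served as a cell-density control.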

[5] = target: Recombinant human GST-tagged Kat6b protein (431-end); assay: Kat6b activity assay (TR-FRET, acetylation of biotinylated Histone-H4-derived peptide); assay type: biochemical; settings: 30 mins at 22° C., read-out: KAT6B activity assay IC50 [mol/l] (arithmetic mean)
[6] = target: Recombinant human GST-tagged Kat6b protein (431-end) (Homo sapiens, UniProt Q8WYB5); assay: as above; assay type: biochemical; settings: 30 mins at 22° C., read-out: KAT6B activity assay IC50 [mol/l] (arithmetic mean)
Recombinant human GST-tagged Kat6b protein (431-end) (Homo sapiens, UniProt Q8WYB5), sequence (Q8WYB5 whole entry, looked up): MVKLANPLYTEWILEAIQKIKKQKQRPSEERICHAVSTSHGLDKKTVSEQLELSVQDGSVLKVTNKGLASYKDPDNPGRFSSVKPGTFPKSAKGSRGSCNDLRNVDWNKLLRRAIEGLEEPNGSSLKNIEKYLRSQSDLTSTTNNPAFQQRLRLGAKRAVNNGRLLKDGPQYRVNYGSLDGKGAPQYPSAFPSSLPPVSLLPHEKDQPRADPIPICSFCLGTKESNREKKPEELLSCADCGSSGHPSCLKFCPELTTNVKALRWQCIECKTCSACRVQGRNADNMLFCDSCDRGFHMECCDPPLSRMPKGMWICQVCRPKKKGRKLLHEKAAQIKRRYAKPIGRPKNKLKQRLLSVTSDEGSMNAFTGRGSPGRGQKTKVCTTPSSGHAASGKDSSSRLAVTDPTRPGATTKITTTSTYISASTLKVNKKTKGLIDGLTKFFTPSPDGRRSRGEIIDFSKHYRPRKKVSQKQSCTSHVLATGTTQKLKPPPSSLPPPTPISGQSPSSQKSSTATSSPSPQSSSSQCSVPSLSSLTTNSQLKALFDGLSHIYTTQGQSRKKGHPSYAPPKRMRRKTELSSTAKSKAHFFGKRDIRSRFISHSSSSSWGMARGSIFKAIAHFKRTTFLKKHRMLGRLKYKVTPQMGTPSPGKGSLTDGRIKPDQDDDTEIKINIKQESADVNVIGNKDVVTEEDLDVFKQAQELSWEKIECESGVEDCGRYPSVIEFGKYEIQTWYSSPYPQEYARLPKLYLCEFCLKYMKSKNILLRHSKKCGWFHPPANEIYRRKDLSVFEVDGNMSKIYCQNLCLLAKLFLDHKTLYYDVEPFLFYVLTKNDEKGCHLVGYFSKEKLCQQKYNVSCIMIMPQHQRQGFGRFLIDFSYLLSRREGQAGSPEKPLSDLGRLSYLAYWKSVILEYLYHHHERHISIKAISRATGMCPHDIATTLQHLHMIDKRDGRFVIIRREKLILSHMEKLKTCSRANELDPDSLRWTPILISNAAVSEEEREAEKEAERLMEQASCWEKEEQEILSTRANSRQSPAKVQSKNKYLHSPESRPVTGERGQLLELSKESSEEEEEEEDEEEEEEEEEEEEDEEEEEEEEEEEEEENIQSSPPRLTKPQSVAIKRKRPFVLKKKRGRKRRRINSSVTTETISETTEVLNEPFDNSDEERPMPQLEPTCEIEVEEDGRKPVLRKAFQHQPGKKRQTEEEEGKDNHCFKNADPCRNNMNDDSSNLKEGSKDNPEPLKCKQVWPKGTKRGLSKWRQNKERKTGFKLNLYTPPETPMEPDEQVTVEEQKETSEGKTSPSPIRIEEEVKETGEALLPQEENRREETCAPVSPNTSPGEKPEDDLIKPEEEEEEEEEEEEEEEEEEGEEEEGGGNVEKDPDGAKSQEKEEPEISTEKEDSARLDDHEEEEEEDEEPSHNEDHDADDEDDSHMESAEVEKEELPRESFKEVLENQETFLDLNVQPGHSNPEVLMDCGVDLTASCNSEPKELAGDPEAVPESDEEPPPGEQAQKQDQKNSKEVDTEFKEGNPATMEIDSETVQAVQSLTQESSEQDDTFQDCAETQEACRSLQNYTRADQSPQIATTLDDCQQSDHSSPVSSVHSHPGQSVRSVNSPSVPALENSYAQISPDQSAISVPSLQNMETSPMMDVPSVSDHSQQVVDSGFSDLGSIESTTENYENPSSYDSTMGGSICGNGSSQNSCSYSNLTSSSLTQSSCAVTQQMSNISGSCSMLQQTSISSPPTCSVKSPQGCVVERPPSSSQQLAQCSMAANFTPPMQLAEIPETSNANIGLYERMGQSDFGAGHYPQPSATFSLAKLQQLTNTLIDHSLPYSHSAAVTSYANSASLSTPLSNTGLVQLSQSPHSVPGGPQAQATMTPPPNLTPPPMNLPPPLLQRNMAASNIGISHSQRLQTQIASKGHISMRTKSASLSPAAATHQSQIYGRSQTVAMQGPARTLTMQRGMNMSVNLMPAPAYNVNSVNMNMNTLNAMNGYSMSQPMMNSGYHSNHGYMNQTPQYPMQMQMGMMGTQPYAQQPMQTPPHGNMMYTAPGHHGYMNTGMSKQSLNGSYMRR

Recombinant human His-tagged Kat6a protein (amino acids 194-810), sequence (Q92794 194-810): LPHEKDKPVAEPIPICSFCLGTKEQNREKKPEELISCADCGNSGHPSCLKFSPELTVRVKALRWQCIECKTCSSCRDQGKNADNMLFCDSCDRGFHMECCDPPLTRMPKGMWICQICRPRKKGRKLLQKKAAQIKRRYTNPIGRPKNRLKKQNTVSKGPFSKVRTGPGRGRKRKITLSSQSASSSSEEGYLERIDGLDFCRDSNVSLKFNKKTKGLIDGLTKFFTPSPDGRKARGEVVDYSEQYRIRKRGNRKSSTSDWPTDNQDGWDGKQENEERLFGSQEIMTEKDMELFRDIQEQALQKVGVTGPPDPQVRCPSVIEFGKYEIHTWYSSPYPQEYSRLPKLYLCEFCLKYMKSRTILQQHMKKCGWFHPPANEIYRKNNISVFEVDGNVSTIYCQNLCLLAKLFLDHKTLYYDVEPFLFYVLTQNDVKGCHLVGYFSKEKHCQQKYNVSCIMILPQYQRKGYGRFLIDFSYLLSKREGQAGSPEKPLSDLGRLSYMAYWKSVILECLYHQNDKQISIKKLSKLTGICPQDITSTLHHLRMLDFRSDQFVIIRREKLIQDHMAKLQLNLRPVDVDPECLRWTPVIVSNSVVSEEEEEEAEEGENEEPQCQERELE

SMILES	EC50 [1]	EC50 [2]	IC50 [3]	IC50 [4]	IC50 [5]	IC50 [6]
CN(C)c1ccc2cc(C(=O)NS(=O)(=O)c3cc(C(C)(C)C)ccc3OC3CCC3)oc2c1 [Example 182, N-[(5-(tert-butyl)-2-cyclobutoxyphenyl)sulfonyl]-6-(dimethylamino)benzofuran-2-carboxamide]	> 20000 nM	6.1e-08 M	2.67 nM	22 nM	11.9 nM	
CC(C)c1ccc(OC2CCC2)c(S(=O)(=O)NC(=O)c2cc3ccc(N(C)C)cc3o2)c1 [Example 184, N-((2-Cyclobutoxy-5-isopropylphenyl)sulfonyl)-6-(dimethylamino)benzofuran-2-carboxamide]	> 20000 nM	6.98e-07 M	15.9 nM	22.5 nM		47.8 nM
COc1ccc(C(C)(C)C)cc1S(=O)(=O)NC(=O)c1cc2ccc(N(C)C)cc2o1 [Example 185, N-((5-(tert-butyl)-2-methoxyphenyl)sulfonyl)-6-(dimethylamino)benzofuran-2-carboxamide]	> 20000 nM	1.69e-08 M	2.63 nM	15.1 nM	13.9 nM	
CN(C)c1cc(C(F)(F)F)c2cc(C(=O)NS(=O)(=O)c3ccccc3-c3ccccc3)oc2c1 [Example 193, N-([1,1′-biphenyl]-2-ylsulfonyl)-6-(dimethylamino)-4-(trifluoromethyl)benzofuran-2-carboxamide]	> 20000 nM	6.55e-06 M	7.14 nM	1690 nM	12.8 nM	
CCOc1ccccc1S(=O)(=O)NC(=O)c1cc2c(C(F)(F)F)cc(N(C)C)cc2o1 [Example 195, 6-(Dimethylamino)-N-((2-ethoxyphenyl)sulfonyl)-4-(trifluoromethyl)benzofuran-2-carboxamide]	> 20000 nM	8.71e-07 M	5.73 nM	716 nM	14.7 nM	
Cc1ccc2cccc(S(=O)(=O)NC(=O)c3cc4c(C(F)(F)F)cc(N(C)C)cc4o3)c2n1 [Example 196, 6-(Dimethylamino)-N-((2-methylquinolin-8-yl)sulfonyl)-4-(trifluoromethyl)benzofuran-2-carboxamide]	> 14100 nM	2.12e-06 M	1.47 nM	295 nM	1.78 nM	
CN(C)c1ccc2cc(C(=O)NS(=O)(=O)c3ccccc3-c3ccccc3)oc2c1C(F)(F)F [Example 202, N-([1,1′-biphenyl]-2-sulfonyl)-6-(dimethylamino)-7-(trifluoromethyl)-1-benzofuran-2-carboxamide]	> 20000 nM	> 2e-05 M	1970 nM	> 20000 nM	3010 nM	
CCOc1ccccc1S(=O)(=O)NC(=O)c1cc2ccc(N(C)C)cc2o1 [Example 223]	> 20000 nM	5.87e-08 M	106 nM	80.2 nM	99.1 nM	
CC(C)Oc1ccccc1S(=O)(=O)NC(=O)c1cc2ccc(N(C)C)cc2o1 [Example 224]	> 20000 nM	5.24e-08 M	58.3 nM	31.4 nM	76.4 nM	
Cc1ccc2cccc(S(=O)(=O)NC(=O)c3cc4ccc(N(C)C)cc4o3)c2n1 [Example 225]	> 20000 nM	7.21e-08 M	22.7 nM	36.2 nM	25.8 nM	
